Measurements from ChEMBL document CHEMBL3991601, “The target landscape of clinical kinase drugs” (Science, 2017).
Activity calls are given as the source filed them.

Columns and labels:
[1] = target: BMP-2-inducible protein kinase (Homo sapiens, UniProt Q9NSY1)
[2] = target: T1, Ephrin type-B receptor 2 (Homo sapiens, UniProt P29323)
T1 sequence (P29323 whole entry): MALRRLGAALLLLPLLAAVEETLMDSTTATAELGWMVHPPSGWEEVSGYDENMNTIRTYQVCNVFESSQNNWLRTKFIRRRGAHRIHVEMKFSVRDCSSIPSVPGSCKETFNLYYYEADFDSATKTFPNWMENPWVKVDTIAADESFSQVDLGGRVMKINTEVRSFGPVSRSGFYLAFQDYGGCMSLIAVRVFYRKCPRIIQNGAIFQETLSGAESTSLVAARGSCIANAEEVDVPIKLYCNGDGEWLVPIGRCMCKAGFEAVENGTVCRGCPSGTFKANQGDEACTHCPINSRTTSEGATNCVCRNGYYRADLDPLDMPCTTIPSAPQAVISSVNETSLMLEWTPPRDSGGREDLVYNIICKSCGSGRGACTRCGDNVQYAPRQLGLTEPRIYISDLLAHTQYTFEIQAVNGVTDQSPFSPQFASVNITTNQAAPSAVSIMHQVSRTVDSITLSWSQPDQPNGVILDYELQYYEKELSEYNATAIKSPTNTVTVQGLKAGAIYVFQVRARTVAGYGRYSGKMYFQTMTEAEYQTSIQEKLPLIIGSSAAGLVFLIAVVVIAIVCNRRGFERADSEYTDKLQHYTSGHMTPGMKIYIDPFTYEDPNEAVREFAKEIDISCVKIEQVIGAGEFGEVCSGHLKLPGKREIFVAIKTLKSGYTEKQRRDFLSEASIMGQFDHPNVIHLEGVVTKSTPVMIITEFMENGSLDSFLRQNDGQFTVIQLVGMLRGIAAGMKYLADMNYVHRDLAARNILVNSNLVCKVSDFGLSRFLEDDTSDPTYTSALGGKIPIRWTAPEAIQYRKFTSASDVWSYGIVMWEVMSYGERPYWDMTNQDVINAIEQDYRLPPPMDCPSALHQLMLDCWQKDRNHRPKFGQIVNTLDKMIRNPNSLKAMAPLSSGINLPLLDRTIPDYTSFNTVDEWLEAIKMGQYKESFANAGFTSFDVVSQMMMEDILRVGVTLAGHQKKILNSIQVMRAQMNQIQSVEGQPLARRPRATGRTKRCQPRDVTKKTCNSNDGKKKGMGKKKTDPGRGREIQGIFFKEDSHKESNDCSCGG

[3] = target: T2, ADP/ATP translocase 2 (Homo sapiens, UniProt P05141)
T2 sequence (P05141 whole entry): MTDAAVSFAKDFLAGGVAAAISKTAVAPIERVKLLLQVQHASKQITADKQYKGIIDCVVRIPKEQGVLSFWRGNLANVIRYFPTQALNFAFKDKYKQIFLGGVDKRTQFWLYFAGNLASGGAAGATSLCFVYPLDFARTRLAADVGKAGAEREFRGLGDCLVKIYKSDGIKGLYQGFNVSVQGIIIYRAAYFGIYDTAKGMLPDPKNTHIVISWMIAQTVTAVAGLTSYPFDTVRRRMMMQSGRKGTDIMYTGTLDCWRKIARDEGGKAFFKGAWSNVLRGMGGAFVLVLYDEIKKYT

[4] = target: U5 small nuclear ribonucleoprotein 200 kDa helicase (Homo sapiens, UniProt O75643)
[5] = target: T3, Tyrosine--tRNA ligase, cytoplasmic (Homo sapiens, UniProt P54577)
T3 sequence (P54577 whole entry): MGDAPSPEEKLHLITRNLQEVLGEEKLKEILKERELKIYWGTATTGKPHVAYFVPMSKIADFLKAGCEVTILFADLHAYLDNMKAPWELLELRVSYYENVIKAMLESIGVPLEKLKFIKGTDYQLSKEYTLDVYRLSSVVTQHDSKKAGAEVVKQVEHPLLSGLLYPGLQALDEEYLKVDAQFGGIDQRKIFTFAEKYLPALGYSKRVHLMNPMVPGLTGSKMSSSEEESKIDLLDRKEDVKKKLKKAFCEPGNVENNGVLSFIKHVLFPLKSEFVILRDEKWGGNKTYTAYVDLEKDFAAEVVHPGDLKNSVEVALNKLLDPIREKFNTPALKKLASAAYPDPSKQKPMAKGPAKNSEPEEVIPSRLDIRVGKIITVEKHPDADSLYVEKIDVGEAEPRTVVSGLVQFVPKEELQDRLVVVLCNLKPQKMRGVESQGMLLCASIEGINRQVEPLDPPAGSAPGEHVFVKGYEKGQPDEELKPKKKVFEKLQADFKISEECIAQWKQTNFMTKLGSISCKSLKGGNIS

[6] = target: T4, Cysteine--tRNA ligase, cytoplasmic (Homo sapiens, UniProt P49589)
T4 sequence (P49589 whole entry): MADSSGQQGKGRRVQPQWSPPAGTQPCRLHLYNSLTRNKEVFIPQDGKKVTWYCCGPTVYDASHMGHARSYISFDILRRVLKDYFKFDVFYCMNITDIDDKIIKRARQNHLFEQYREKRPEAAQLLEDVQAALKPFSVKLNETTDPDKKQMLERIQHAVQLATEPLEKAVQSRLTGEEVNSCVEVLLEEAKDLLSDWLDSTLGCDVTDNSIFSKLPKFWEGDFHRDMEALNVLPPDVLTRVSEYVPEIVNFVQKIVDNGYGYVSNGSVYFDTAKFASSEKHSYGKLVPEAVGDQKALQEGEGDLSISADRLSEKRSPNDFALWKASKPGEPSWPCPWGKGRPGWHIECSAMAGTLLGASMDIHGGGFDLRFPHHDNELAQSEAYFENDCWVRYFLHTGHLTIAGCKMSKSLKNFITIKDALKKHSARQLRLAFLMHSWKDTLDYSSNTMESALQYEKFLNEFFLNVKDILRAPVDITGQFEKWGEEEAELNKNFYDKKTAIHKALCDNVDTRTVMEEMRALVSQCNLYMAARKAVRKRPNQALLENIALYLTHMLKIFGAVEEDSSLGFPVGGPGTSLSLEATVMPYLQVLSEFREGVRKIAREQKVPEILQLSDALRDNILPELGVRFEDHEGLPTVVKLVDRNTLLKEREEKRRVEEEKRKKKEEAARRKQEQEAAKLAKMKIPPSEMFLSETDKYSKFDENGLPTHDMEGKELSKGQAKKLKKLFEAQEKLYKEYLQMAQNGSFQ
Also: in the data inactive means no Kd found up to 30 µM.

U5 small nuclear ribonucleoprotein 200 kDa helicase, sequence (O75643 whole entry): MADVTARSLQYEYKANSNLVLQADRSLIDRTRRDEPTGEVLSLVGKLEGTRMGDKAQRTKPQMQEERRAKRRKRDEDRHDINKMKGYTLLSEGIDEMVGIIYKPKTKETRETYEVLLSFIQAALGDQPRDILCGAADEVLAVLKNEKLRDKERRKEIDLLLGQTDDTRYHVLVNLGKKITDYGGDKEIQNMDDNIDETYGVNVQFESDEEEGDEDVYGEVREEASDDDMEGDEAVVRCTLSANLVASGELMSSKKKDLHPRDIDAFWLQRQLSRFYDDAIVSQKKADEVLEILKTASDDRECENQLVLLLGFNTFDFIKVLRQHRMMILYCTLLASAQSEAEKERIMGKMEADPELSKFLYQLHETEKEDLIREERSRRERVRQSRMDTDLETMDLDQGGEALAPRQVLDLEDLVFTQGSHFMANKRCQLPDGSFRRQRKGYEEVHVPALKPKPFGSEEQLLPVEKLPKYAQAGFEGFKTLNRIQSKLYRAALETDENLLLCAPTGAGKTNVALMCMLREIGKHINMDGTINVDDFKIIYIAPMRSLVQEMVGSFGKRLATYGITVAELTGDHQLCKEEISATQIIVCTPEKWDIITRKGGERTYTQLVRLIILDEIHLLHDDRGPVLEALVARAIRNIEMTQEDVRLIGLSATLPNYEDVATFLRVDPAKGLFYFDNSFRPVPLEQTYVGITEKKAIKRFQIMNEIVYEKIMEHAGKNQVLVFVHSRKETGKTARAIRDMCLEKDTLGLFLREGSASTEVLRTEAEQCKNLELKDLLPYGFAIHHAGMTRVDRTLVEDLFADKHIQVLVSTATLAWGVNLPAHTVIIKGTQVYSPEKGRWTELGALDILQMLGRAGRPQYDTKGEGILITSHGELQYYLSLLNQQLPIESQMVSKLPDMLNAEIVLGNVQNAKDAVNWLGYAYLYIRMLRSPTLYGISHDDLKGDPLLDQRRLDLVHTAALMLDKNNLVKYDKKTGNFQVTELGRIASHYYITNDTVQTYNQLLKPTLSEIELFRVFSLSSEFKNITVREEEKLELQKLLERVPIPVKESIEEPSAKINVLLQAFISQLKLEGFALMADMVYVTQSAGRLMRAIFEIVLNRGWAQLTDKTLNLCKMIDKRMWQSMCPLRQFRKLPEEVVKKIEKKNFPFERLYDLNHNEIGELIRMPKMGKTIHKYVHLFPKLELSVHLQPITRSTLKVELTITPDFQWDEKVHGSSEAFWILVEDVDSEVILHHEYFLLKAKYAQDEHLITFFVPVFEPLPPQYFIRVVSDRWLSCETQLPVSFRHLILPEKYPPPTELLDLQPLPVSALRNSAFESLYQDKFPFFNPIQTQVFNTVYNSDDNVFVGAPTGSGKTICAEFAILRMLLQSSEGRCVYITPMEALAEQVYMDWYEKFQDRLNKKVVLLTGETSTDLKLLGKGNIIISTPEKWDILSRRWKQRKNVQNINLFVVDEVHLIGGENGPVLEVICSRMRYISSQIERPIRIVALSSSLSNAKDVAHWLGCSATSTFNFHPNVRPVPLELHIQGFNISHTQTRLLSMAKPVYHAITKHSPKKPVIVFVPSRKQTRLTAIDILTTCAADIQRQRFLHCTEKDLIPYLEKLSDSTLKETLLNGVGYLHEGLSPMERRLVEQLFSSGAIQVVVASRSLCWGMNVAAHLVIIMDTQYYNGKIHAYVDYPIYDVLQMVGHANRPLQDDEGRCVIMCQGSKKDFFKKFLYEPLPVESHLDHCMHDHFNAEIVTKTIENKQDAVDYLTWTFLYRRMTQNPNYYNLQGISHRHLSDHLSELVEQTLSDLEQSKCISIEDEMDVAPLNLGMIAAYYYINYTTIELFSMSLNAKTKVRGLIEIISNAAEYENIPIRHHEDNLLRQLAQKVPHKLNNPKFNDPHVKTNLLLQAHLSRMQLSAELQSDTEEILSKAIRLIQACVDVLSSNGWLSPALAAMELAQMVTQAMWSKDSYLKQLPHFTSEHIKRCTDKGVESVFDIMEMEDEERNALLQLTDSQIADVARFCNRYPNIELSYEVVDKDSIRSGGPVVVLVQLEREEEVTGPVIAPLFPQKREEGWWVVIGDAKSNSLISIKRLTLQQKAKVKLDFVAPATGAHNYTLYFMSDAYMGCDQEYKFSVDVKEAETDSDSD
BMP-2-inducible protein kinase, sequence (Q9NSY1 whole entry): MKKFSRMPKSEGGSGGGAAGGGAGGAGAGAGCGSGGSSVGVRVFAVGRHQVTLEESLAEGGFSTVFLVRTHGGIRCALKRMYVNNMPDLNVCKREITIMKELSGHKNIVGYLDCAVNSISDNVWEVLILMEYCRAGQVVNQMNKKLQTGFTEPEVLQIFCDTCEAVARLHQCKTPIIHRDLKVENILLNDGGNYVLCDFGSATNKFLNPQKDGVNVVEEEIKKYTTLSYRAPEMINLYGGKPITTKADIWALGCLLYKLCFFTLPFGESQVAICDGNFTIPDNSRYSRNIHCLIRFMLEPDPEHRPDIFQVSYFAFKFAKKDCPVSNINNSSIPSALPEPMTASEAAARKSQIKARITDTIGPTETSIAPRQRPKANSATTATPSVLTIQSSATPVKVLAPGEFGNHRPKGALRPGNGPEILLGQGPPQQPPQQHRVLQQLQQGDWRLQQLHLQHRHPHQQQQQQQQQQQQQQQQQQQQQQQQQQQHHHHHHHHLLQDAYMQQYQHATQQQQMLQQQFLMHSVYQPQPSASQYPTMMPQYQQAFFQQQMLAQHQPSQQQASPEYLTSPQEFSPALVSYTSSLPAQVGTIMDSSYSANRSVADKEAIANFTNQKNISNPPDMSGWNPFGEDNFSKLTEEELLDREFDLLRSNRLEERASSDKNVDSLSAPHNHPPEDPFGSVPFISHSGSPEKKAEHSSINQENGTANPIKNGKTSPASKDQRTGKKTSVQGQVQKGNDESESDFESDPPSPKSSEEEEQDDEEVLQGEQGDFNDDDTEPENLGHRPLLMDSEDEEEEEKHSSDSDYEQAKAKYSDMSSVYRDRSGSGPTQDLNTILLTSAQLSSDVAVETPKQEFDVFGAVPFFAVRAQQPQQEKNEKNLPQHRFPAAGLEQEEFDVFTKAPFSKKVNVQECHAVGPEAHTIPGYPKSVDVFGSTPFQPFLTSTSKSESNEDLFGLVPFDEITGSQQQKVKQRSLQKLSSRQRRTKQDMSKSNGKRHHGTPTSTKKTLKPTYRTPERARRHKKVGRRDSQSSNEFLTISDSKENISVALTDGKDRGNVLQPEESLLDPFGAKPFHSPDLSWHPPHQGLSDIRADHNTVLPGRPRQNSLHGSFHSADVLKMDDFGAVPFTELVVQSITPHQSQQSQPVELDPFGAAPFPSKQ

| SMILES | Kd [1] | Kd [2] | Kd [3] | Kd [4] | Kd [5] | Kd [6] |
| --- | --- | --- | --- | --- | --- | --- |
| Cn1c(=O)c(F)c(Nc2ccc(I)cc2F)c2c(=O)n(C[C@@H](O)CO)cnc21 [TAK-733] | > 30 µM (inactive) | > 30 µM (inactive) | > 30 µM (inactive) | > 30 µM (inactive) | > 30 µM (inactive) | – |
| COc1cc2ncnc3c2cc1OCCCCCN(C)Cc1ccc(Br)cc1N3 [JNJ-26483327] | > 30 µM (inactive) | > 30 µM (inactive) | > 30 µM (inactive) | > 30 µM (inactive) | > 30 µM (inactive) | > 30 µM (inactive) |
| COc1cc2ncnc(Nc3ccc(F)c(Cl)c3)c2cc1NC(=O)/C=C/CN1CCCCC1 [DACOMITINIB ANHYDROUS] | > 30 µM (inactive) | > 30 µM (inactive) | > 30 µM (inactive) | > 30 µM (inactive) | > 30 µM (inactive) | > 30 µM (inactive) |
| C#Cc1cccc(Nc2ncnc3cc4c(cc23)OCCOCCOCCO4)c1 [ICOTINIB] | > 30 µM (inactive) | > 30 µM (inactive) | > 30 µM (inactive) | > 30 µM (inactive) | > 30 µM (inactive) | 0.652 µM (active) |
| Cc1cc(C(=O)Nc2cc(Oc3ccc4nc(NC(=O)C5CC5)cn4n3)ccc2C)n(C)n1 [TAK-593] | 10.9 µM (active) | > 30 µM (inactive) | > 30 µM (inactive) | > 30 µM (inactive) | > 30 µM (inactive) | – |
| CN(c1ncccc1CNc1nc(Nc2ccc3c(c2)CC(=O)N3)ncc1C(F)(F)F)S(C)(=O)=O [PF-00562271] | – | > 30 µM (inactive) | > 30 µM (inactive) | > 30 µM (inactive) | > 30 µM (inactive) | > 30 µM (inactive) |
| O[C@H]1CC[C@H](Nc2ncc3nc(Nc4c(F)cc(F)cc4F)n([C@H]4CCOC4)c3n2)CC1 [TANZISERTIB] | > 30 µM (inactive) | > 30 µM (inactive) | > 30 µM (inactive) | > 30 µM (inactive) | > 30 µM (inactive) | – |
| Cn1cnc2c(F)c(Nc3ccc(Br)cc3Cl)c(C(=O)NOCCO)cc21 [SELUMETINIB] | – | – | > 30 µM (inactive) | > 30 µM (inactive) | > 30 µM (inactive) | > 30 µM (inactive) |
| O=S(=O)(c1cccc2cnccc12)N1CCCNCC1 [FASUDIL] | – | > 30 µM (inactive) | > 30 µM (inactive) | – | > 30 µM (inactive) | > 30 µM (inactive) |
| CNC(=O)c1cc(COc2nnc(Nc3ccc(Cl)cc3)c3ccoc23)ccn1 [TELATINIB] | > 30 µM (inactive) | > 30 µM (inactive) | > 30 µM (inactive) | > 30 µM (inactive) | > 30 µM (inactive) | – |
| COc1cc2c(N3CCN(C(=O)Nc4ccc(OC(C)C)cc4)CC3)ncnc2cc1OCCCN1CCCCC1 [TANDUTINIB] | – | – | > 30 µM (inactive) | – | > 30 µM (inactive) | – |
| COc1cc2c(Oc3ccc4[nH]c(C)cc4c3F)ncnc2cc1OCCCN1CCCC1 [CEDIRANIB] | – | – | > 30 µM (inactive) | > 30 µM (inactive) | > 30 µM (inactive) | > 30 µM (inactive) |
| CC[C@@](C)(Nc1ccnc(-c2c[nH]c3ncccc23)n1)C(=O)NCC(F)(F)F [DECERNOTINIB] | 5.75 µM (active) | > 30 µM (inactive) | > 30 µM (inactive) | > 30 µM (inactive) | > 30 µM (inactive) | – |
| CC1(C)CNc2cc(NC(=O)c3cccnc3NCc3ccncc3)ccc21 [MOTESANIB] | – | – | > 30 µM (inactive) | > 30 µM (inactive) | > 30 µM (inactive) | > 30 µM (inactive) |
| CN(C)C/C=C/C(=O)Nc1cc2c(Nc3ccc(F)c(Cl)c3)ncnc2cc1O[C@H]1CCOC1 [AFATINIB] | – | – | > 30 µM (inactive) | > 30 µM (inactive) | > 30 µM (inactive) | > 30 µM (inactive) |
| O=c1[nH]c([C@@H]2CCCN2)nc2c1oc1ccc(Cl)cc12 | > 30 µM (inactive) | > 30 µM (inactive) | > 30 µM (inactive) | > 30 µM (inactive) | > 30 µM (inactive) | – |
| C[C@@]1(C(=O)Nc2ccc(F)nc2)CCCN1c1nc(Nc2cc(C3CC3)n[nH]2)c2cccn2n1 [BMS-754807] | – | – | > 30 µM (inactive) | > 30 µM (inactive) | > 30 µM (inactive) | > 30 µM (inactive) |
| CCN1CCN(Cc2ccc(Nc3ncc(F)c(-c4cc(F)c5nc(C)n(C(C)C)c5c4)n3)nc2)CC1 [ABEMACICLIB] | 56 µM (active) | > 30 µM (inactive) | > 30 µM (inactive) | > 30 µM (inactive) | > 30 µM (inactive) | – |
| COc1cccc(Nc2ncnn3ccc(CN4CC[C@@H](N)[C@H](O)C4)c23)c1 [BMS-690514] | 1.71 µM (active) | > 30 µM (inactive) | > 30 µM (inactive) | > 30 µM (inactive) | > 30 µM (inactive) | – |
| C=CC(=O)Nc1cccc(Nc2nc(Nc3ccc(N4CCN(C(C)=O)CC4)cc3OC)ncc2C(F)(F)F)c1 [ROCILETINIB] | > 30 µM (inactive) | > 30 µM (inactive) | > 30 µM (inactive) | > 30 µM (inactive) | > 30 µM (inactive) | – |
| Cc1cc(-c2cc(OC(=O)c3ccccc3)ccc2Cl)cc2nnc(Nc3ccc(OCCN4CCCC4)cc3)nc12 [TG100-801] | > 30 µM (inactive) | 1.3 µM (active) | > 30 µM (inactive) | – | > 30 µM (inactive) | – |
| C=CCN(/C=C1/C(=O)O[C@H](COC)[C@@]2(C)C1=C(O)C(=O)C1=C2[C@H](OC(C)=O)C[C@]2(C)C(=O)CC[C@@H]12)CC=C [SONOLISIB] | > 30 µM (inactive) | > 30 µM (inactive) | > 30 µM (inactive) | > 30 µM (inactive) | – | – |
| N#CCNC(=O)c1ccc(-c2ccnc(Nc3ccc(N4CCOCC4)cc3)n2)cc1 [MOMELOTINIB] | – | > 30 µM (inactive) | > 30 µM (inactive) | > 30 µM (inactive) | > 30 µM (inactive) | > 30 µM (inactive) |
| Cc1c(NC(=O)OC[C@@H]2COCCN2)cn2ncnc(Nc3ccc4c(cnn4Cc4cccc(F)c4)c3)c12 [AC-480] | > 30 µM (inactive) | > 30 µM (inactive) | > 30 µM (inactive) | > 30 µM (inactive) | > 30 µM (inactive) | – |
